What all share (assay type): cell-based
In assay [1] the target is T1, THIK-1 G331x (Homo sapiens, UniProt Q9HB14).
T1 construct: expressed in transfected cells; host or cells: Xenopus oocytes (mRNA injection)
T1 sequence (Q9HB14 1-330 limits assumed): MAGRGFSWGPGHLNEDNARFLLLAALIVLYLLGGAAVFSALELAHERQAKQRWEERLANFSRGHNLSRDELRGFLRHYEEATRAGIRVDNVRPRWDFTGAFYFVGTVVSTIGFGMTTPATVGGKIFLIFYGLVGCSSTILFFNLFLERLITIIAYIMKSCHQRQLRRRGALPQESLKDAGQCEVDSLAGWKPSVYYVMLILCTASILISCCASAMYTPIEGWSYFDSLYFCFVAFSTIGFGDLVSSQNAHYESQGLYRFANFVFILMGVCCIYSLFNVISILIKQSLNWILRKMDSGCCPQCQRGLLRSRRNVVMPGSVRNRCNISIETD
Put plainly: Inside-out excised patch recordings, oocytes, THIK-1 truncated at CASP8 cleavage site (G331x). An excerpt: (§1) Human K2P13.1 THIK-1 (GenBank accession number: NM_022054) and human K2P12.1 THIK-2 (NM_022055.1) were used in this study. For functional expression studies, the respective K^+ channel subtype coding sequences were subcloned into the oocyte expression vector pSGEM or the dual-purpose expression vector pFAW[41] and verified by sequencing. All mutant channels were obtained by site-directed mutagenesis and verified by sequencing. To increase surface expression and macroscopic currents, measurements of THIK-2 channels used a mutated ER retention motif, (R11A R12A R14A R15A R16A; THIK-2*)[20]. Vector DNA was linearized with NheI or MluI, and mRNA was synthesized in vitro using the SP6 or T7 AmpliCap Max High Yield Message Maker Kit (Cellscript, USA) or HiScribe T7 ARCA mRNA Kit (New England Biolabs).
(§2) Two-electrode voltage–clamp (TEVC) studies were performed in Xenopus oocytes. All animal use conformed to the Guide for the Care and Use of Laboratory Animals (NIH Publication 85–23), and all experiments using Xenopus toads were approved by the local ethics panels. Oocytes were stored at 17 °C in ND96 recording solution composed of (in mM): 96 NaCl, 2 KCl, 1.8 CaCl2, 1 MgCl2, 5 HEPES (pH 7.5 adjusted with NaOH and HCl), supplemented with Na-pyruvate (275 mg L^–1), theophylline (90 mg L^–1) and gentamicin (50 mg L^–1). Oocytes were injected with 1 ng mRNA for WT or mutant channels, and were incubated for 24–48 h at 17 °C. Two-electrode voltage clamp recordings were then performed as previously described[42],[43]. For macroscopic patch–clamp measurements, oocytes were obtained as described above incubated at 17 °C in a solution containing (mM): 54 NaCl, 30 KCl, 2.4 NaHCO3, 0.82 MgSO4 ×7 H2O, 0.41 CaCl2, 0.33 Ca(NO3)2 ×4 H2O and 7.5 TRIS (pH 7.4 adjusted with NaOH and HCl) for 1–4 days before use. Excised patch recordings in inside-out configuration conditions were performed at room temperature. Patch pipettes were made from thick-walled borosilicate glass GB 200TF-8P (Science Products), had resistances of 0.2–0.5 MΩ (tip diameter, 10–25 µm) and filled with a pipette solution (in mM): 120 KCl, 10 HEPES and 3.6 CaCl2 (pH 7.4 adjusted with KOH and HCl). Intracellular bath solutions and compounds were applied to the cytoplasmic side of excised patches for the various K^+ channels through a gravity flow multi-barrel pipette system. The intracellular solution had the following composition (in mM): 120 KCl, 10 HEPES, 2 EGTA and 1 pyrophosphate (pH adjusted with KOH and HCl). Currents were recorded with an EPC10 amplifier (HEKA Electronics) and sampled at 10 kHz or higher, with filtering set to 3 kHz (–3 dB) or higher, as appropriate for sampling rate. For measurements of GPCR activation, whole-cell currents were recorded for THIK-1 in transiently transfected HEK-293 cells. Cells were stimulated by a ramp protocol between −100 and +60 mV (holding potential, −80 mV). The pipette solution was composed of (in mM): 140 KCl, 2 MgCl2, 1 CaCl2, 2.5 EGTA and 10 HEPES (pH 7.3 adjusted with KOH and HCl). The extracellular bath solution had the following composition (in mM): 135 NaCl, 5 KCl, 2 MgCl2, 2 CaCl2, 10 glucose and 10 HEPES pH (pH 7.3 adjusted with NaOH and HCl). Oxotremorine M (Oxo-M) was added to extracellular bath solution to obtain the final concentration. Single-channel currents were recorded with an Axopatch 200B amplifier through a Digidata 1440A digitizer (Molecular Devices). Data were filtered at 2 kHz and recorded at a 200-kHz sampling rate with the program Clampex (Molecular Devices). Pipette solution and bath solution for cell-attached recordings contained (in mM): 140 KCl, 2 MgCl2, 1 CaCl2 and 10 HEPES (pH 7.4 adjusted with KOH and HCl). For inside-out recordings, the bath solution contained (in mM): 140 KCl, 2 MgCl2, 1 CaCl2 and 10 HEPES (pH 7.2 adjusted with KOH and HCl). All experiments were conducted at room temperature. […]

Assay [2] concerns the target T2, THIK-1 V269A (Homo sapiens, UniProt Q9HB14, V269A).
T2 construct: expressed in transfected cells; host or cells: Xenopus oocytes (mRNA injection)
T2 sequence (Q9HB14 1-408 V269A): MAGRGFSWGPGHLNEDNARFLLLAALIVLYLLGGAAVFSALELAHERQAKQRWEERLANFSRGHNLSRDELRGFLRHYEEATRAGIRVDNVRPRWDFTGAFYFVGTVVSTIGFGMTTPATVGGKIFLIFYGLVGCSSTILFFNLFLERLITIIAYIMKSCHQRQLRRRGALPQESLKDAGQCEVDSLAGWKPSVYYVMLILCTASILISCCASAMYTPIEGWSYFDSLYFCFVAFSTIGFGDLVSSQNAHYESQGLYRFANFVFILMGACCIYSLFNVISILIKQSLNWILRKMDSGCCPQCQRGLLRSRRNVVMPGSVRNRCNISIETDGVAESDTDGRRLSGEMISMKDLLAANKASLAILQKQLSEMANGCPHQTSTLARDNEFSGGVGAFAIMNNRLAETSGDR
Briefly: Inside-out excised patch recordings, oocytes, THIK-1 V269A mutant. To be noted: for IC50: read-out: TPenA IC50.
Source text: as §1, §2

Assay [3] deals with T3, THIK-1 S109A (Homo sapiens, UniProt Q9HB14, S109A).
T3 construct: expressed in transfected cells; host or cells: Xenopus oocytes (mRNA injection)
Briefly: Inside-out excised patch recordings, oocytes, THIK-1 S109A mutant (lipid activation). The settings on record: read-out: Linoleic acid EC50. An excerpt: Supplement 41594_2025_1497_MOESM2_ESM.xlsx, sheet "ExtData_Fig_S5f" | column: Linoleic acid EC50 (µM); S109A

Results on 2 compounds are retold here after PMC12263422, “Cryo-EM structure of the human THIK-1 K2P K^+ channel reveals a lower Y gate regulated by lipids and anesthetics” (Nature Structural & Molecular Biology, 2025).

Several values for one entry are separate records, joined by “and”; a condition that tells them apart may be missing. Equal values may be shown once. Read-outs that look alike come from different tables or passages of the source.

T3 sequence (Q9HB14 whole entry S109A): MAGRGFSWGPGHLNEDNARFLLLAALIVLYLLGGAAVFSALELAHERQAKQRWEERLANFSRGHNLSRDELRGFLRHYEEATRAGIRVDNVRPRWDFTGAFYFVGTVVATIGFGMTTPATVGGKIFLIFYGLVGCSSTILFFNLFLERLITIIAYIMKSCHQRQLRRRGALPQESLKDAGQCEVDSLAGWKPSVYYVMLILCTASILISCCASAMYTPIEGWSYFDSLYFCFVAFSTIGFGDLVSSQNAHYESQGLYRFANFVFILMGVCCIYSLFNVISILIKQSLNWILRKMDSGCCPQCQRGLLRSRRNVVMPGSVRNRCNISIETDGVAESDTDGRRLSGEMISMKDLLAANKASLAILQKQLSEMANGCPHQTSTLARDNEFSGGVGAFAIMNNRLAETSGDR

Consider `CCCCC[N+](CCCCC)(CCCCC)CCCCC` [TPenA, tetrapentylammonium], for which the Normalized currents in assay [1] (0.1 µM TPenA) is reported as 1.00; in assay [1] (1 µM TPenA), 1.00; in assay [1] (10 µM TPenA) it was 0.89; in assay [1] (100 µM TPenA), 0.40; in assay [1] (1000 µM TPenA) it was 0.09; in assay [1] (2000 µM TPenA), 0.05. In addition, the Normalized currents is reported as 1.00 in assay [2] (THIK-1 V269A, 1 µM TPenA); 0.97 in assay [2] (THIK-1 V269A, 4 µM TPenA); 0.93 in assay [2] (THIK-1 V269A, 15.6 µM TPenA); 0.87 in assay [2] (THIK-1 V269A, 62.5 µM TPenA); 0.78 in assay [2] (THIK-1 V269A, 250 µM TPenA); 0.65 in assay [2] (THIK-1 V269A, 1000 µM TPenA). Also, the Normalized currents in assay [2] (THIK-1 V269A, 4000 µM TPenA) worked out at 0.45. The IC50 (commonly the concentration at which inhibition is half-maximal) in assay [2] (THIK-1 V269A, mean) was 2200 µM; in assay [2] (V269A mutant) it was 2200 µM.
Take `CCCCC/C=C\C/C=C\CCCCCCCC(=O)O` [linoleic acid]: the EC50 – broadly, the midpoint of the concentration-response curve – in assay [3] (individual recordings) was 47.5 µM and 45.3 µM and 76.4 µM and 21.1 µM and 36.6 µM and 51 µM and 47.6 µM and 129 µM; in assay [3] (mean), 56.8 µM.
